From ChEMBL document CHEMBL4229529, “Synthesis, molecular docking, and biological activity of 2-vinyl chromones: Toward selective butyrylcholinesterase inhibitors for potential Alzheimer's disease therapeutics” (Bioorg Med Chem, 2018)
The source made the active and inactive calls. The calls are words filed in the database; no cut-off is given here.

Experiments:
[1] = molecular target: Cholinesterase (Equus caballus) (UniProt P81908); assay: Inhibition of equine serum BChE at 20 uM using butylthiocholine iodide as substrate incubated for 10 mins followed by substrate addition by Ellman's method relative to control
Acetylcholinesterase = Acetylcholinesterase (Homo sapiens, UniProt P22303)
Description: Inhibition of human erythrocyte AChE using acetylthiocholine iodide as substrate incubated for 10 mins followed by substrate addition by Ellman's method

Cholinesterase [2] = molecular target: T1, Cholinesterase (Equus caballus, UniProt P81908)
Description: Inhibition of equine serum BChE using butylthiocholine iodide as substrate incubated for 10 mins followed by substrate addition by Ellman's method

Liver carboxylesterase [3] = molecular target: T2, Liver carboxylesterase (Sus scrofa, UniProt Q29550)
T2 sequence (Q29550 whole entry): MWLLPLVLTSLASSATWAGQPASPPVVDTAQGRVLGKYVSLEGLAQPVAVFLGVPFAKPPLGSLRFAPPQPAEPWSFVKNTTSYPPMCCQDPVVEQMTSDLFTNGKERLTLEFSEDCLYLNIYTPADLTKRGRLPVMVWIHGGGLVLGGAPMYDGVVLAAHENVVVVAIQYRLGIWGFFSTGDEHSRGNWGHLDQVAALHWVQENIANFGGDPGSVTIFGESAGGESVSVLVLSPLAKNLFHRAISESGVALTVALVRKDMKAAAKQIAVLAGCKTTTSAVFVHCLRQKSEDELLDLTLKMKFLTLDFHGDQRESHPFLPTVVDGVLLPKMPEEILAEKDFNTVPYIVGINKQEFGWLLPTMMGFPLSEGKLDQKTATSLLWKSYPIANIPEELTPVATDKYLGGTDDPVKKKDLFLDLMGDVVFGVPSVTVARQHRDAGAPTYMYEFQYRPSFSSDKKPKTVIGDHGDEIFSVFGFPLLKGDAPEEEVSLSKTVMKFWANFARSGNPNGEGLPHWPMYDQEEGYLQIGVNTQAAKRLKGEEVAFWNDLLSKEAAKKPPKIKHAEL
Description: Inhibition of porcine liver carboxylesterase using 4-nitrophenol acetate as substrate incubated for 10 mins followed by substrate addition by spectrophotometric method

Liver carboxylesterase [4] = molecular target: T2, Liver carboxylesterase; assay: in vitro; details: pig, porcine liver carboxylesterase, probe 4-nitrophenol acetate
Description: Inhibition of porcine liver carboxylesterase at 20 uM using 4-nitrophenol acetate as substrate incubated for 10 mins followed by substrate addition by spectrophotometric method relative to control

Cholinesterase [5] = molecular target: T1, Cholinesterase; assay: Competitive inhibition of equine serum BChE using butylthiocholine iodide as substrate incubated for 10 mins followed by substrate addition by Lineweaver-Burk double-reciprocal plot analysis
[6] = molecular target: Cholinesterase (Equus caballus) (UniProt P81908); assay: Non-competitive inhibition of equine serum BChE using butylthiocholine iodide as substrate incubated for 10 mins followed by substrate addition by Lineweaver-Burk double-reciprocal plot analysis

T1 sequence (P81908 whole entry): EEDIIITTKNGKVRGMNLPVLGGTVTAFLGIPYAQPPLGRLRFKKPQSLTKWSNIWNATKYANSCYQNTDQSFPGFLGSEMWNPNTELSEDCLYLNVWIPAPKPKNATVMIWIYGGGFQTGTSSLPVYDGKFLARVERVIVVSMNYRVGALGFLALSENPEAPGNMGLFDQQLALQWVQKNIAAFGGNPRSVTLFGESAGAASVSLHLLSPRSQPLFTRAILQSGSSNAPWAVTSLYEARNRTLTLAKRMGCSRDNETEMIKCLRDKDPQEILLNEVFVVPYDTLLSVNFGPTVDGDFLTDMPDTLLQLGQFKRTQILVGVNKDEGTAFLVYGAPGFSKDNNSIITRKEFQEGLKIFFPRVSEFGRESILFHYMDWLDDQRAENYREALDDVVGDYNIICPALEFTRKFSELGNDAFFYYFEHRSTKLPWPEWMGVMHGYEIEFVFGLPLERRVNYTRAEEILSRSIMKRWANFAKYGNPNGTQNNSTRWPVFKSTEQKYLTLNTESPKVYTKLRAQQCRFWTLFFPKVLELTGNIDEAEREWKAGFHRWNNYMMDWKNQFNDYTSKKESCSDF
Sequence of Cholinesterase (Equus caballus) (P81908 whole entry): as above
Sequence of Acetylcholinesterase (P22303 whole entry): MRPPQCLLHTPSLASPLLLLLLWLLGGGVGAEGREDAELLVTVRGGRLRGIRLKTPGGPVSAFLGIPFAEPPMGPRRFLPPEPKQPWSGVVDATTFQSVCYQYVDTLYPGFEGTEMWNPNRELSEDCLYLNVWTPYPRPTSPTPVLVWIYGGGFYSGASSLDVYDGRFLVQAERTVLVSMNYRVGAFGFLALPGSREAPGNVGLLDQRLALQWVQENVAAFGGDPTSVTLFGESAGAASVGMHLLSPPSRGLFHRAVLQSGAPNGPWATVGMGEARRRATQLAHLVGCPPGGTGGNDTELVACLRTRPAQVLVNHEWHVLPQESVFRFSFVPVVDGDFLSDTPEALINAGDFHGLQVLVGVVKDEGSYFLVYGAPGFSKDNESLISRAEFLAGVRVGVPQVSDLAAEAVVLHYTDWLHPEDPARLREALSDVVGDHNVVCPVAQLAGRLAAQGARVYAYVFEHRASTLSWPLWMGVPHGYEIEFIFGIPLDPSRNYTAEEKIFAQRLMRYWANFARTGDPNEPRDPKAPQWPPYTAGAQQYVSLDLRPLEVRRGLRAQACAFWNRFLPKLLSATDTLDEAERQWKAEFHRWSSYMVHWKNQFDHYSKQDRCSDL

Structure (SMILES) | inhibition [1] | IC50 (Acetylcholinesterase) | IC50 (Cholinesterase [2]) | IC50 (Liver carboxylesterase [3]) | inhibition at 10 min, 20 µM (Liver carboxylesterase [4]) | Ki (Cholinesterase [5]) | alphaKi [6]
CCOc1cccc2c(=O)c3c(oc12)CCN(Cc1ccccc1)C3 | 13.2% | > 20 µM | > 20 µM | – | – | – | –
C=Cc1oc2c(OCC)cccc2c(=O)c1CN(/C=C/C(C)=O)Cc1ccccc1 | – | – | 50.1 µM | – | – | – | –
CCOc1cccc2c(=O)c3c(oc12)CCN(/C(=C/C(=O)OC)C(=O)OC)C3 | 20.7% | > 20 µM | > 20 µM | > 20 µM | 3.5% | – | –
C=Cc1oc2c(OCC)cccc2c(=O)c1CN(/C=C/C(=O)OC)Cc1ccccc1 | 16.3% | – | > 20 µM | > 20 µM | 25.9% | – | –
O=[N+]([O-])c1ccc(OP(=O)(O)Oc2ccc([N+](=O)[O-])cc2)cc1 | inactive | – | – | – | – | – | –
C=Cc1oc2ccccc2c(=O)c1CN(/C=C/C(C)=O)Cc1ccccc1 | – | > 20 µM | 4.75 µM | > 20 µM | 10% | 2120 nM | 9.14 µM
C=Cc1oc2ccc(Br)cc2c(=O)c1CN(Cc1ccccc1)/C(=C/C(=O)OC)C(=O)OC | 21.9% | > 20 µM | > 20 µM | > 20 µM | 15.2% | – | –
O=c1c2c(oc3ccc(Br)cc13)CCN(Cc1ccccc1)C2 | 3.3% | > 20 µM | > 20 µM | > 20 µM | 31.2% | – | –
COC(=O)/C=C(\C(=O)OC)N1CCc2oc3ccccc3c(=O)c2C1 | 7.5% | – | > 20 µM | > 20 µM | 19.8% | – | –
C=Cc1oc2ccccc2c(=O)c1CN(Cc1ccccc1)/C(=C/C(=O)OC)C(=O)OC | – | > 20 µM | 13.8 µM | > 20 µM | 26.4% | – | –
C=Cc1oc2ccccc2c(=O)c1CN(C)/C=C/C(=O)OC | 18.4% | – | > 20 µM | > 20 µM | 6.3% | – | –
CCOc1cccc2c(=O)c3c(oc12)CCN(C)C3 | inactive | > 20 µM | – | > 20 µM | 7.6% | – | –
COC(=O)/C=C(\C(=O)OC)N1CCc2oc3ccc(Br)cc3c(=O)c2C1 | 4.3% | > 20 µM | > 20 µM | > 20 µM | 5.1% | – | –
C=Cc1oc2ccc(Br)cc2c(=O)c1CN(/C=C/C(C)=O)Cc1ccccc1 | – | > 20 µM | 13.5 µM | > 20 µM | 4.6% | – | –
C=Cc1oc2c(OCC)cccc2c(=O)c1CN(Cc1ccccc1)/C(=C/C(=O)OC)C(=O)OC | 11.2% | – | > 20 µM | > 20 µM | 14.4% | – | –
C=Cc1oc2ccccc2c(=O)c1CN(/C=C/C(=O)OC)Cc1ccccc1 | – | > 20 µM | 6.31 µM | > 20 µM | 23.6% | 1790 nM | 1.94 µM
O=c1c2c(oc3ccccc13)CCN(Cc1ccccc1)C2 | 13% | > 20 µM | > 20 µM | – | – | – | –
CN1CCc2oc3ccc(Br)cc3c(=O)c2C1 | 4.2% | > 20 µM | > 20 µM | – | – | – | –
C=Cc1oc2ccc(Br)cc2c(=O)c1CN(C)/C=C/C(=O)OC | 14.1% | > 20 µM | > 20 µM | > 20 µM | 10.5% | – | –
C=Cc1oc2c(OCC)cccc2c(=O)c1CN(C)/C=C/C(=O)OC | inactive | – | – | > 20 µM | 7.9% | – | –
C=Cc1oc2ccc(Br)cc2c(=O)c1CN(/C=C/C(=O)OC)Cc1ccccc1 | – | > 20 µM | 2.27 µM | > 20 µM | 22.4% | 1550 nM | 6.9 µM
CN1CCc2oc3ccccc3c(=O)c2C1 | inactive | – | – | > 20 µM | 6.4% | – | –
